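Five compound concentrations were applied to cells in 96-well plates for 48 hours; endpoints were derived by simple linear interpolation of the resulting dose-response curve. GI50 marks 50% less growth.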 Calls of active or inactive are those of the source. Cut-off read from the data, not from the text of the source: active = GI50 up to about 1.1 µM and inactive = higher.
Key:
Assay in all cases: NCI anticancer screen, dose series, 48 h
[1] = tested on: 786-0
[2] = tested on: A498
[3] = tested on: A549
[4] = tested on: ACHN
[5] = tested on: CAKI-1
[6] = tested on: CCRF-CEM
[7] = tested on: COLO 205
[8] = tested on: DLD-1
[9] = tested on: DMS-114
[10] = tested on: DMS-273
[11] = tested on: EKVX
[12] = tested on: HCT-116
[13] = tested on: HL-60
[14] = tested on: HOP-62
[15] = tested on: HOP-92
[16] = tested on: K562
[17] = tested on: KM-20L2
[18] = tested on: KM12
[19] = tested on: LOX IMVI
[20] = tested on: M14
[21] = tested on: M19-MEL
[22] = tested on: MOLT-4
[23] = tested on: NCI-H23
[24] = tested on: NCI-H460
[25] = tested on: NCI-H522
[26] = tested on: OVCAR-3
[27] = tested on: OVCAR-4
[28] = tested on: OVCAR-8
[29] = tested on: RPMI-8226
[30] = tested on: RXF 393
[31] = tested on: RXF 631
[32] = tested on: SF-268
[33] = tested on: SF-295
[34] = tested on: SF-539
[35] = tested on: SK-MEL-28
[36] = tested on: SK-MEL-5
[37] = tested on: SK-OV-3
[38] = tested on: SN12C
[39] = tested on: SNB-19
[40] = tested on: SNB-75
[41] = tested on: SNB-78
[42] = tested on: SR
[43] = tested on: SW-620
[44] = tested on: TK-10
[45] = tested on: U-251
[46] = tested on: UACC-257
[47] = tested on: UACC-62
[48] = tested on: UO-31
[49] = tested on: HCC 2998
[50] = tested on: HCT-15
[51] = tested on: HOP-18
[52] = tested on: HT-29
[53] = tested on: IGROV-1
[54] = tested on: LXFL 529
[55] = tested on: Malme-3M
[56] = tested on: NCI-H226
[57] = tested on: OVCAR-5
[58] = tested on: SK-MEL-2
[59] = tested on: XF498

CCCC(Sc1ccccc1)P(=O)(c1ccccc1)c1ccccc1 (stereo not given)
GI50 [1]: 37.7 µM (inactive) | GI50 [2]: 28.3 µM (inactive) | GI50 [3]: 28.8 µM (inactive) | GI50 [4]: 19.8 µM (inactive) | GI50 [5]: 42.3 µM (inactive) | GI50 [6]: 29.9 µM (inactive) | GI50 [7]: 31.4 µM (inactive) | GI50 [8]: 19.6 µM (inactive) | GI50 [9]: 34.8 µM (inactive) | GI50 [10]: 36.6 µM (inactive) | GI50 [11]: 24 µM (inactive) | GI50 [12]: 31.3 µM (inactive) | GI50 [13]: 22.3 µM (inactive) | GI50 [14]: 46.6 µM (inactive) | GI50 [15]: 21.8 µM (inactive) | GI50 [16]: 29.9 µM (inactive) | GI50 [17]: > 100 µM (inactive) | GI50 [18]: 38.7 µM (inactive) | GI50 [19]: 35.6 µM (inactive) | GI50 [20]: 35.2 µM (inactive) | GI50 [21]: 34.6 µM (inactive) | GI50 [22]: 20.6 µM (inactive) | GI50 [23]: 35.6 µM (inactive) | GI50 [24]: 29.8 µM (inactive) | GI50 [25]: 31.5 µM (inactive) | GI50 [26]: 41.1 µM (inactive) | GI50 [27]: 37.8 µM (inactive) | GI50 [28]: 36.2 µM (inactive) | GI50 [29]: 19 µM (inactive) | GI50 [30]: 41.8 µM (inactive) | GI50 [31]: 30.1 µM (inactive) | GI50 [32]: 32.5 µM (inactive) | GI50 [33]: 27.8 µM (inactive) | GI50 [34]: 35.1 µM (inactive) | GI50 [35]: 42.1 µM (inactive) | GI50 [36]: 25.4 µM (inactive) | GI50 [37]: 22.7 µM (inactive) | GI50 [38]: 43.5 µM (inactive) | GI50 [39]: > 100 µM (inactive) | GI50 [40]: 28.6 µM (inactive) | GI50 [41]: 37.6 µM (inactive) | GI50 [42]: 20.6 µM (inactive) | GI50 [43]: 41.9 µM (inactive) | GI50 [44]: 40 µM (inactive) | GI50 [45]: 23.5 µM (inactive) | GI50 [46]: 35.1 µM (inactive) | GI50 [47]: 15.1 µM (inactive) | GI50 [48]: > 100 µM (inactive)

COc1ccc(/C=C2\CCC(CCN(C)C)(C3=CCCC3)C2=O)cc1Br (stereo not given)
GI50 [1]: 3.78 µM (inactive) | GI50 [2]: 8.95 µM (inactive) | GI50 [3]: 8.32 µM (inactive) | GI50 [4]: 9.29 µM (inactive) | GI50 [5]: 8.81 µM (inactive) | GI50 [6]: 2.13 µM (inactive) | GI50 [7]: 1.58 µM (inactive) | GI50 [8]: 5.13 µM (inactive) | GI50 [9]: 4.32 µM (inactive) | GI50 [10]: 3.78 µM (inactive) | GI50 [11]: 0.0306 µM (active) | GI50 [49]: 2.33 µM (inactive) | GI50 [12]: 3.46 µM (inactive) | GI50 [50]: 4.54 µM | GI50 [13]: 2.52 µM (inactive) | GI50 [51]: 12.4 µM (inactive) | GI50 [14]: 14.5 µM (inactive) | GI50 [15]: 2.97 µM (inactive) | GI50 [52]: 2.59 µM (inactive) | GI50 [53]: 4.54 µM (inactive) | GI50 [16]: 2.58 µM (inactive) | GI50 [17]: 1.59 µM (inactive) | GI50 [18]: 3.73 µM (inactive) | GI50 [19]: 4.06 µM (inactive) | GI50 [54]: 4.71 µM (inactive) | GI50 [20]: 1.79 µM (inactive) | GI50 [21]: 2.93 µM (inactive) | GI50 [22]: 2.7 µM (inactive) | GI50 [55]: 13.8 µM (inactive) | GI50 [56]: 16.9 µM (inactive) | GI50 [23]: 13.9 µM (inactive) | GI50 [24]: 10.1 µM (inactive) | GI50 [25]: 2.06 µM (inactive) | GI50 [26]: 5.74 µM (inactive) | GI50 [27]: 3.68 µM (inactive) | GI50 [57]: 14 µM (inactive) | GI50 [28]: 9.08 µM (inactive) | GI50 [29]: 2.17 µM (inactive) | GI50 [30]: 2.22 µM (inactive) | GI50 [31]: 14.7 µM (inactive) | GI50 [32]: 7.03 µM (inactive) | GI50 [33]: 3.85 µM (inactive) | GI50 [34]: 12.1 µM (inactive) | GI50 [35]: 2.76 µM (inactive) | GI50 [58]: 10 µM (inactive) | GI50 [36]: 1.71 µM (inactive) | GI50 [38]: 9.95 µM (inactive) | GI50 [39]: 9.44 µM (inactive) | GI50 [40]: 4.49 µM (inactive) | GI50 [41]: 9.02 µM (inactive) | GI50 [42]: 1.51 µM (inactive) | GI50 [43]: 7.66 µM (inactive) | GI50 [44]: 6.93 µM (inactive) | GI50 [45]: 5.82 µM (inactive) | GI50 [46]: 2.43 µM (inactive) | GI50 [48]: 5.35 µM (inactive) | GI50 [59]: 3.24 µM (inactive)
